Results as given in ChEMBL document CHEMBL3244230, “Synthesis and gastric antisecretory properties of 15-deoxy-16-hydroxyprostaglandin E analogues” (1977).
Active and inactive are the calls of the source. The calls are words filed in the database; no cut-off is given here.

Experiments:
Canis familiaris [1] = assay: Gastric antisecretory activity in iv dosed Mongrel dog with heidenhain pouch assessed as inhibition of histamine-induced total acid output by titrimetric method; type: functional; details: Canis lupus familiaris, read-out: ID50 (the source's name)
Canis familiaris [2] = assay: Gastric antisecretory activity in Mongrel dog with heidenhain pouch assessed as inhibition of histamine-induced total acid output at 0.1 to 100 ug/kg, iv by titrimetric method relative to PGE1; type: functional, Canis lupus familiaris
Canis familiaris [3] = assay: Gastric antisecretory activity in Mongrel dog with heidenhain pouch assessed as inhibition of histamine-induced total acid output at 30 ug/kg, iv by titrimetric method; type: functional, organism-based; details: Canis lupus familiaris

Q: For `CCCCC[C@H](O)/C=C/[C@H]1[C@H](O)CC(=O)[C@@H]1CCCCCCC(=O)OC`, which ED50 (Canis familiaris [1]) is on record?
A: 3.8 µg/kg

Q: What about the “fold change (FC)” value (Canis familiaris [2]) of the same compound?
A: 2.3

Q: Which ED50 (Canis familiaris [1]) does the source give for `CCCCC(O)C/C=C/[C@H]1[C@H](O)CC(=O)[C@@H]1CCCCCCC(=O)OC` (mixture of isomers) here?
A: 5.4 µg/kg

Q: What about the “fold change (FC)” value (Canis familiaris [2]) of the same compound?
A: 0.7

Q: `CCCCC(C)(O)C/C=C/[C@H]1[C@H](O)CC(=O)[C@@H]1C/C=C\CCCC(=O)OC` (mixture of isomers) was tested. Which ED50 (Canis familiaris [1]) did it give?
A: 0.3 µg/kg

Q: And the “fold change (FC)” value (Canis familiaris [2])?
A: 24.9

Q: Which ED50 (Canis familiaris [1]) does the source give for `CCCCCC(C)(O)C/C=C/[C@H]1[C@H](O)CC(=O)[C@@H]1CCCCCCC(=O)OC` (mixture of isomers) here?
A: 0.31 µg/kg

Q: What about the “fold change (FC)” value (Canis familiaris [2]) of the same compound?
A: 19.9

Q: What does the source list for `CCCCC(O)C/C=C/[C@H]1[C@H](O)CC(=O)[C@@H]1C/C=C\CCCC(=O)OC` (mixture of isomers)?
A: ED50 (Canis familiaris [1]): 4.1 µg/kg; fold change (FC) (Canis familiaris [2]): 1.9

Q: How did the ED50 (Canis familiaris [1]) turn out when `CCCCC(O)C(C)(C)/C=C/[C@H]1[C@H](O)CC(=O)[C@@H]1CCCCCCC(=O)OC` (mixture of isomers) was run?
A: 140 µg/kg

Q: What about the “fold change (FC)” value (Canis familiaris [2]) of the same compound?
A: 0.05

Q: Which ED50 (Canis familiaris [1]) does the source give for `CCCCC(O)(CC)C/C=C/[C@H]1[C@H](O)CC(=O)[C@@H]1CCCCCCC(=O)OC` (mixture of isomers) here?
A: 27.8 µg/kg

Q: And the “fold change (FC)” value (Canis familiaris [2])?
A: 0.21

Q: With `CCCCC(C)(O)C/C=C/[C@H]1CCC(=O)[C@@H]1CCCCCCC(=O)O` (mixture of isomers) as the compound, how does the ED50 (Canis familiaris [1]) read?
A: 4.3 µg/kg

Q: What about the “fold change (FC)” value (Canis familiaris [2]) of the same compound?
A: 1.5

Q: How did the ED50 (Canis familiaris [1]) turn out when `CCCCC(C)(O)C/C=C/[C@H]1[C@@H](O)CC(=O)[C@@H]1CCCCCCC(=O)OC` (mixture of isomers) was run?
A: 16.9 µg/kg

Q: What about the “fold change (FC)” value (Canis familiaris [2]) of the same compound?
A: 0.21

Q: Which ED50 (Canis familiaris [1]) does the source give for `CCCCC(C)(O)CCC[C@H]1[C@H](O)CC(=O)[C@@H]1CCCCCCC(=O)OC` (mixture of isomers) here?
A: 5.9 µg/kg

Q: And the “fold change (FC)” value (Canis familiaris [2])?
A: 0.98

Q: `CCCCC(C)(O)C/C=C\[C@H]1[C@H](O)CC(=O)[C@@H]1CCCCCCC(=O)OC` (mixture of isomers) was tested. Which ED50 (Canis familiaris [1]) did it give?
A: 39.8 µg/kg

Q: And the “fold change (FC)” value (Canis familiaris [2])?
A: 0.17

Q: How did the inhibition (Canis familiaris [3]) turn out when `CCCC(C)(C)C(O)C/C=C/[C@H]1[C@H](O)CC(=O)[C@@H]1CCCCCCC(=O)OC` (mixture of isomers) was run?
A: inactive

Q: What does the source list for `CCCCC(C)(O)C/C=C/[C@H]1[C@H](O)CC(=O)[C@@H]1CCCCCCC(=O)OC` (mixture of isomers) [MISOPROSTOL]?
A: ED50 (Canis familiaris [1]): 0.16 µg/kg; fold change (FC) (Canis familiaris [2]): 47.8

Q: For `CCCCC[C@H](O)/C=C/[C@H]1[C@H](O)CC(=O)[C@@H]1CCCCCCC(=O)O` [ALPROSTADIL], which ED50 (Canis familiaris [1]) is on record?
A: 6.7 µg/kg
